According to article PMC6114962, “A Phase Ib, open-label, dose-finding study of alpelisib in combination with paclitaxel in patients with advanced solid tumors” (Oncotarget, 2018):
Read-outs that look alike come from different tables or passages of the source. Blank lines part the entries; values can stand above or below the compound they belong to.

Assays:
[1] = tested on: patients with advanced solid tumors; settings: cited from earlier work
[2] = tested on: patients with advanced solid tumors; assay: Phase Ib dose finding: dose-limiting toxicities and MTD of alpelisib QD plus paclitaxel; format: in vivo, human; settings: with paclitaxel 80 mg/m^2 QW; BLRM with EWOC
Experimental: In the dose-finding phase, the primary objective was to determine the MTD and/or recommended Phase II dose (RP2D) of alpelisib QD when administered with paclitaxel 80 mg/m^2 QW in patients with advanced solid tumors, and the secondary objectives were to assess safety and tolerability and to characterize the pharmacokinetic (PK) profile.
Patients received oral alpelisib QD in 28-day cycles (300, 250, or 150 mg) and paclitaxel 80 mg/m^2 QW as a 1-hour (±15 minutes) IV infusion after standard premedication (per local standard practice). Patients received treatment until disease progression, unacceptable toxicity, patient decision, death, or discontinuation for any other reason. […]
An adaptive 5-parameter Bayesian logistic regression model (BLRM) with escalation with overdose control (EWOC) guided the dose-finding of each combination. […] Available data were analyzed after Cycle 1 per cohort of patients to decide the dose for the next cohort and/or determine the MTD/RP2D. […]

patients [3] = settings: cited from earlier work
[4] = tested on: patients with advanced solid tumors; format: in vivo
Experimental: Patients received oral alpelisib QD in 28-day cycles (300, 250, or 150 mg) and paclitaxel 80 mg/m^2 QW as a 1-hour (±15 minutes) IV infusion after standard premedication (per local standard practice). Patients received treatment until disease progression, unacceptable toxicity, patient decision, death, or discontinuation for any other reason.
(§1) PK samples for alpelisib were collected from all patients.
(§2) Analysis sets were as follows: full analysis set (FAS), all patients who received at least one dose of alpelisib and/or paclitaxel; safety set, all patients who received at least one dose of alpelisib and/or paclitaxel and had at least one valid post-baseline safety assessment; dose-determining set (DDS), all patients from the safety set who during Cycle 1 either met the minimum exposure criterion and had sufficient safety evaluations, or experienced a DLT; and pharmacokinetic analysis set, all patients in the FAS who received at least one dose of alpelisib and/or paclitaxel and had at least one evaluable concentration measurement.

[5] = Plasma pharmacokinetics of paclitaxel and alpelisib in Cycle 1; format: in vivo, human; settings: for Tmax / AUC(0-t) / Cmax / AUC(0-inf): human, plasma; for AUC(0-t): read-out: AUC0–24, geometric mean (CV%); for Cmax: read-out: Cmax, geometric mean (CV%); for AUC(0-inf): read-out: AUCinf, geometric mean (CV%)
Text: as §1, §2

patients [6] = tested on: patients; design: method as in PMID 22184370; settings: paclitaxel 80 mg/m^2 QW, 1-hour IV infusion; cited from earlier work
[7] = alpelisib 150 mg plus paclitaxel
[8] = alpelisib 250 mg plus paclitaxel
[9] = alpelisib 300 mg plus paclitaxel
[10] = po, oral alpelisib 150 mg QD + paclitaxel, C1D8
[11] = po, oral alpelisib 250 mg QD + paclitaxel, C1D8
[12] = po, oral alpelisib 300 mg QD + paclitaxel, C1D8
[13] = iv, 80 mg/m^2, paclitaxel 80 mg/m^2 IV, C1D1, alpelisib 150 mg + paclitaxel cohort
[14] = iv, 80 mg/m^2, paclitaxel 80 mg/m^2 IV, C1D1, alpelisib 250 mg + paclitaxel cohort
[15] = iv, paclitaxel 80 mg/m^2 IV, C1D8, alpelisib 150 mg + paclitaxel cohort
[16] = paclitaxel 80 mg/m^2 IV, C1D1, alpelisib 300 mg + paclitaxel cohort
[17] = paclitaxel 80 mg/m^2 IV, C1D8, alpelisib 250 mg + paclitaxel cohort

Compound: Cc1nc(NC(=O)N2CCC[C@H]2C(N)=O)sc1-c1ccnc(C(C)(C)C(F)(F)F)c1 [alpelisib]
Grade 3/4 AE: hyperglycemia ([1]; single-agent alpelisib 30–450 mg QD or 120–200 mg twice daily, N=134): 23.9% | all-grade treatment-related AE: hyperglycemia ([1]; single-agent alpelisib, N=134): 51.5% | maximum tolerated dose (MTD), single agent ([1]; single-agent alpelisib, advanced solid tumors): 400 mg once daily (QD) | hyperglycemia DLT during dose finding ([1]; single-agent alpelisib, seven of 68 evaluable patients): 10.3% | dose from which preliminary anti-tumor activity was exhibited ([1]; single-agent alpelisib, solid tumors): ≥ 270 mg QD | all-grade treatment-related AE: decreased appetite ([1]; single-agent alpelisib): 41.8% | all-grade treatment-related AE: diarrhea ([1]; single-agent alpelisib): 40.3% | all-grade treatment-related AE: nausea ([1]; single-agent alpelisib): 50.0% | all-grade treatment-related AE: vomiting ([1]; single-agent alpelisib): 31.3% | MTD of alpelisib when administered with paclitaxel [2]: 150 mg QD | MTD of alpelisib with nab-paclitaxel (patients [3]; Phase I study (N=10)): not reached | recommended Phase II dose, alpelisib (patients [3]; plus nab-paclitaxel 100 mg/m^2 IV weekly): 350 mg daily | rate of alpelisib dose interruption [4, 7]: 66.7% | rate of alpelisib dose reduction (at least one) [4, 7]: 22.2% | rate of alpelisib dose interruption [4, 8]: 75.0% | rate of alpelisib dose reduction (at least one) [4, 8]: 50.0% | rate of alpelisib dose interruption [4, 9]: 66.7% | rate of alpelisib dose reduction (at least one) [4, 9]: 66.7% | impact of steady-state alpelisib exposure on paclitaxel metabolism ([5]; alpelisib 150–300 mg): no impact | Cmax and AUC0-24 after oral administration versus dose ([5]; alpelisib 150–300 mg QD): increased in a dose-dependent manner | Tmax ([5]; oral, Cycle 1 Day 8, alpelisib 150–300 mg, read-out: Median time to maximum concentration (Tmax) across dose levels): 3.17 to 4.17 h | AUC(0-t) [5, 10]: 13800 ng·h/mL | Cmax [5, 10]: 1390 ng/mL | Tmax ([5]; po, oral alpelisib 150 mg QD + paclitaxel, C1D8, read-out: Tmax, median (range)): 3.17 h | AUC(0-t) [5, 11]: 27700 ng·h/mL | Cmax [5, 11]: 3750 ng/mL | Tmax ([5]; po, oral alpelisib 250 mg QD + paclitaxel, C1D8, read-out: Tmax, median (range)): 3.23 h | AUC(0-t) [5, 12]: 37100 ng·h/mL | Cmax [5, 12]: 3000 ng/mL | Tmax ([5]; po, oral alpelisib 300 mg QD + paclitaxel, C1D8, read-out: Tmax, median (range)): 4.17 h

plasma drug exposure (AUCinf and Cmax), Cycle 1 Day 1 versus Cycle 1 Day 8 ([5]; absence versus presence of alpelisib, except Cmax at alpelisib 300 mg C1D8): comparable | AUC(0-inf) [5, 13]: 4360 ng·h/mL | Cmax [5, 13]: 2650 ng/mL | AUC(0-inf) [5, 14]: 4320 ng·h/mL | Cmax [5, 14]: 2770 ng/mL | Cmax ([5]; iv, 80 mg/m^2, paclitaxel 80 mg/m^2 IV, C1D1, alpelisib 300 mg + paclitaxel cohort): 2700 ng/mL | AUC(0-inf) [5, 15]: 4370 ng·h/mL | Cmax [5, 15]: 2790 ng/mL | Cmax ([5]; iv, paclitaxel 80 mg/m^2 IV, C1D8, alpelisib 250 mg + paclitaxel cohort): 2960 ng/mL | AUC(0-inf) ([5]; iv, paclitaxel 80 mg/m^2 IV, C1D8, alpelisib 300 mg + paclitaxel cohort): 4470 ng·h/mL | Tmax ([5]; iv, paclitaxel 80 mg/m^2 IV, C1D8, alpelisib 300 mg + paclitaxel cohort, read-out: Tmax, median (range)): 0.75 h | Tmax, median (range) ([5]; paclitaxel 80 mg/m^2 IV, C1D1, alpelisib 150 mg + paclitaxel cohort): 1 (0.87–1.17) [8] hours | Tmax, median (range) ([5]; paclitaxel 80 mg/m^2 IV, C1D1, alpelisib 250 mg + paclitaxel cohort): 1 (0.45–1.05) [3] hours | AUCinf, geometric mean (CV%) [5, 16]: 5000 (24) [5] ng·hr/ml | Tmax, median (range) [5, 16]: 1 (0.5–1.28) [5] hours | Tmax, median (range) ([5]; paclitaxel 80 mg/m^2 IV, C1D8, alpelisib 150 mg + paclitaxel cohort): 1 (0.5–1.07) [9] hours | AUCinf, geometric mean (CV%) [5, 17]: 5000 (42.7) [2] ng·hr/ml | Tmax, median (range) [5, 17]: 0.8 (0.5–1.17) [3] hours | Cmax, geometric mean (CV%) ([5]; paclitaxel 80 mg/m^2 IV, C1D8, alpelisib 300 mg + paclitaxel cohort): 1250 (114) [6] ng/ml
Compound: CC(=O)O[C@H]1C(=O)[C@@]2(C)[C@H]([C@H](OC(=O)c3ccccc3)[C@]3(O)C[C@H](OC(=O)[C@H](O)[C@@H](NC(=O)c4ccccc4)c4ccccc4)C(C)=C1C3(C)C)[C@]1(OC(C)=O)CO[C@@H]1C[C@@H]2O [paclitaxel]
all-grade AE: abdominal pain (patients [6]): 33% | all-grade AE: alopecia (patients [6]): 36% | all-grade AE: fatigue (patients [6]): 47% | all-grade AE: nausea (patients [6]): 31% | all-grade AE: peripheral neuropathy (patients [6]): 31%
